How the values were obtained:
[1] = Dynamic vapor sorption (DVS) hygroscopicity; format: physicochemical; conditions: relative humidity of 10% to 90%; for stability from the hygroscopic aspect: expected from the DVS result
Procedure: Dynamic vapor sorption (DVS) analysis was performed in a DVS advantage (Surface measurement system, United Kingdom) analyzer at 25° C. with a relative humidity of 0% to 90%. A sample in an amount of 10 mg was placed into a wire-mesh vapor sorption balance pan and then attached to a DVS advantage dynamic vapor sorption balance via surface measurement systems. Until a stable weight was achieved (99.5% completion of steps), the sample was applied to a ramping profile with a relative humidity of 10% to 90% with a 10% increase of the sample while maintaining the sample in each step. Upon completion of the sorption cycle, the sample was dried using the same process while maintaining a relative humidity of […]. The changes in the sample weight during the adsorption/desorption cycle (repeated 3 times) were recorded and the hygroscopicity of the sample was measured.

[2] = Storage stability under long-term and accelerated conditions; format: physicochemical; conditions: for stability under a long-term storage condition: temperature of 25° C. and relative humidity of 60%; for stability under an accelerated condition: temperature of 40° C. and relative humidity of 75%
Procedure: High performance liquid chromatography (HPLC) analysis was performed for the purposes of analyzing purity and contents such as a stability test, etc., using an Agilent 1100/1200 series HPLC Systems (Agilent, USA) analyzer, and the conditions used for HPLC were as follows.

stability from the hygroscopic aspect [1]	water content / hygroscopic level in the DVS ([1]; 25° C.)	stability under a long-term storage condition [2]	stability under an accelerated condition [2]	SMILES
stable	about 1.5%	–	–	C=CC(=O)Nc1cccc(Oc2nc(Nc3ccc(N4CCN(C)CC4)cc3)nc3ccsc23)c1 [Example 1, N-(3-(2-(4-(4-methylpiperazin-1-yl)phenylamino)thieno[3,2-d]pyrimidin-4-yloxy)phenyl)acrylamide]
very stable	–	very stable	very stable	C=CC(=O)Nc1cccc(Oc2nc(Nc3ccc(N4CCN(C)CC4)cc3)nc3ccsc23)c1 [Example 4, N-(3-(2-(4-(4-methylpiperazin-1-yl)phenylamino)thieno[3,2-d]pyrimidin-4-yloxy)phenyl)acrylamide]
unstable	–	–	–	C=CC(=O)Nc1cccc(Oc2nc(Nc3ccc(N4CCN(C)CC4)cc3)nc3ccsc23)c1 [Comparative Example 1, N-(3-(2-(4-(4-methylpiperazin-1-yl)phenylamino)thieno[3,2-d]pyrimidin-4-yloxy)phenyl)acrylamide, reference compound]
very stable	–	very stable	very stable	C=CC(=O)Nc1cccc(Oc2nc(Nc3ccc(N4CCN(C)CC4)cc3)nc3ccsc23)c1 [Example 3, N-(3-(2-(4-(4-methylpiperazin-1-yl)phenylamino)thieno[3,2-d]pyrimidin-4-yloxy)phenyl)acrylamide]

— patent US10464946B2, “Crystalline forms of thienopyrimidine compound” (HANMI PHARM. CO., LTD., priority 2015, dated 2019)
